The text below walks through data of ChEMBL document CHEMBL4699665, “Discovery of ANT3310, a Novel Broad-Spectrum Serine β-Lactamase Inhibitor of the Diazabicyclooctane Class, Which Strongly Potentiates Meropenem Activity against Carbapenem-Resistant Enterobacterales and Acinetobacter baumannii” (J Med Chem, 2020).

Molecules are shown by their SMILES. ≈ marks a conversion by molar mass, not a printed value. Where only a bound is given, the exact number is not on record here.

A short description of data set [1]: Inhibition of bacteria beta lactamase OXA-23 assessed as decrease in enzyme activity using nitrocefin as substrate preincubated for 10 mins followed by substrate addition measured for 10 mins by fluorescence plate reader analysis.
Data set [2] concerns Acinetobacter baumannii. As to the kind of experiment: Inhibition of beta lactamase OXA in carbapenem-resistant Acinetobacter baumannii assessed as meropenem-induced antibacterial activity by measuring meropenem MIC50 at 4 ug/ml by broth microdilution method (Rvb > 32 ug/ml). Particulars: dose 4.0 µg/ml.
In data set [3] the test system is Enterobacter. Put plainly: Inhibition of beta lactamase OXA in carbapenem-resistant Enterobacter assessed as meropenem maximum concentration required for antibacterial activity at 4 ug/ml by broth microdilution method (Rvb > 32 ug/ml). Particulars: dose 4.0 µg/ml. Background: Broth dilution looks for growth in wells or tubes with falling amounts of substance.
The subject of data set [4] is Enterobacter. Put plainly: Inhibition of beta lactamase KPC in carbapenem-resistant Enterobacter assessed as meropenem maximum concentration required for antibacterial activity at 4 ug/ml by broth microdilution method (Rvb >32 ug/ml). Particulars: dose 4.0 µg/ml.
Data set [5] relates to Enterobacter. As to the kind of experiment: Inhibition of beta lactamase OXA in carbapenem-resistant Enterobacter assessed as meropenem minimum concentration required for antibacterial activity at 4 ug/ml by broth microdilution method (reference value: 2 ug/ml). Particulars: dose 4.0 µg/ml.
A short description of data set [6]: Inhibition of beta lactamase CTXM-15 in Enterobacter cloacae assessed as decrease in enzyme activity using nitrocefin as substrate preincubated for 10 mins followed by substrate addition measured for 10 mins by fluorescence plate reader analysis.
In data set [7] the test system is Acinetobacter baumannii. As to the kind of experiment: Inhibition of beta lactamase OXA in carbapenem-resistant Acinetobacter baumannii assessed as meropenem minimum concentration required for antibacterial activity at 4 ug/ml by broth microdilution method (reference value: 8 ug/ml). As to conditions: dose 4.0 µg/ml.
The subject of data set [8] is Enterobacter. Put plainly: Inhibition of beta lactamase KPC in carbapenem-resistant Enterobacter assessed as meropenem minimum concentration required for antibacterial activity at 4 ug/ml by broth microdilution method (reference value: 4 ug/ml). Particulars: dose 4.0 µg/ml.
Data set [9] relates to Klebsiella pneumoniae. As to the kind of experiment: Potentiation of meropenem-induced antibacterial activity against Klebsiella pneumoniae expressing TEM-1/SHV-11/KPC-3 assessed as meropenem MIC at 4 ug/ml by broth microdilution method (reference value: 128 ug/ml). Particulars: dose 4 µg/ml. It is filed as functional.
A short description of data set [10]: Inhibition of beta lactamase AmpC in Enterobacter cloacae assessed as decrease in enzyme activity using nitrocefin as substrate preincubated for 10 mins followed by substrate addition measured for 10 mins by fluorescence plate reader analysis.
Data set [11] concerns Enterobacter cloacae. Put plainly: Potentiation of meropenem-induced antibacterial activity against Enterobacter cloacae expressing TEM-1/KPC-2 assessed as meropenem MIC at 4 ug/ml by broth microdilution method (reference value: 8 ug/ml). It is filed as functional. Particulars: dose 4 µg/ml.
Data set [12] is described as follows: Inhibition of beta lactamase KPC-2 in Enterobacter cloacae assessed as decrease in enzyme activity using nitrocefin as substrate preincubated for 10 mins followed by substrate addition measured for 10 mins by fluorescence plate reader analysis.
For data set [13], the system named is Enterobacter. As to the kind of experiment: Inhibition of beta lactamase OXA in carbapenem-resistant Enterobacter assessed as meropenem-induced antibacterial activity by measuring meropenem MIC50 at 4 ug/ml by broth microdilution method (reference value: 16 ug/ml). Particulars: dose 4.0 µg/ml.
Data set [14] is described as follows: Inhibition of beta lactamase TEM-1 in Enterobacter cloacae assessed as decrease in enzyme activity using nitrocefin as substrate preincubated for 10 mins followed by substrate addition measured for 10 mins by fluorescence plate reader analysis.
Data set [15] has as its system Acinetobacter baumannii. As to the kind of experiment: Inhibition of beta lactamase OXA in carbapenem-resistant Acinetobacter baumannii assessed as meropenem maximum concentration required for antibacterial activity at 4 ug/ml by broth microdilution method (Rvb > 32 ug/ml). Particulars: dose 4.0 µg/ml.
The test system of data set [16] is Klebsiella pneumoniae. Put plainly: Potentiation of meropenem-induced antibacterial activity against Klebsiella pneumoniae expressing SHV-11/OXA-121 assessed as meropenem MIC at 4 ug/ml by broth microdilution method (reference value: 16 ug/ml). It is filed as functional. As to conditions: dose 4 µg/ml.
The subject of data set [17] is Acinetobacter baumannii. As to the kind of experiment: Inhibition of beta lactamase OXA in carbapenem-resistant Acinetobacter baumannii assessed as meropenem-induced antibacterial activity by measuring meropenem MIC90 at 4 ug/ml by broth microdilution method (Rvb > 32 ug/ml). Particulars: dose 4.0 µg/ml.
Data set [18] can be described thus: Inhibition of beta lactamase OXA-48 in Enterobacter cloacae assessed as decrease in enzyme activity using nitrocefin as substrate preincubated for 10 mins followed by substrate addition measured for 10 mins by fluorescence plate reader analysis.
In data set [19] the test system is Enterobacter. As to the kind of experiment: Inhibition of beta lactamase OXA in carbapenem-resistant Enterobacter assessed as meropenem-induced antibacterial activity by measuring meropenem MIC 90 at 4 ug/ml by broth microdilution method (Rvb >32 ug/ml). As to conditions: dose 4.0 µg/ml.
Data set [20] deals with Enterobacter. Put plainly: Inhibition of beta lactamase KPC in carbapenem-resistant Enterobacter assessed as meropenem-induced antibacterial activity by measuring meropenem MIC50 at 4 ug/ml by broth microdilution method (Rvb >32 ug/ml). Particulars: dose 4.0 µg/ml.
The test system of data set [21] is Enterobacter. As to the kind of experiment: Inhibition of beta lactamase KPC in carbapenem-resistant Enterobacter assessed as meropenem-induced antibacterial activity by measuring meropenem MIC90 at 4 ug/ml by broth microdilution method (Rvb >32 ug/ml). Particulars: dose 4.0 µg/ml.
Data set [22] has as its system Klebsiella pneumoniae. Put plainly: Potentiation of meropenem-induced antibacterial activity against Klebsiella pneumoniae expressing TEM-OSBL/CTX-M-14/OXA-48 assessed as meropenem MIC at 4 ug/ml by broth microdilution method (reference value: 16 ug/ml). As to conditions: dose 4 µg/ml. It is filed as functional.
In data set [23] the test system is Acinetobacter baumannii. As to the kind of experiment: Potentiation of meropenem-induced antibacterial activity against Acinetobacter baumannii expressing OXA-23 assessed as meropenem MIC at 4 ug/ml by broth microdilution method (reference value: 32 ug/ml). It is filed as functional. As to conditions: dose 4 µg/ml.
Data set [24] in a line: Half life in rat at 1 mg/kg, iv. Particulars: in vivo. It is filed as ADME, organism-based.
Data set [25] can be described thus: Volume of distribution in rat at 1 mg/kg, iv. It is filed as ADME, organism-based. Particulars: in vivo.
Data set [26] in a line: Clearance in rat at 1 mg/kg, iv. It is filed as ADME, organism-based. As to conditions: in vivo.
In data set [27] the test system is Klebsiella pneumoniae. As to the kind of experiment: Antibacterial activity against Klebsiella pneumoniae expressing TEM-OSBL/CTX-M-14/OXA-48 by broth microdilution method. It is filed as functional.
For data set [28], the system named is Klebsiella pneumoniae. As to the kind of experiment: Antibacterial activity against Klebsiella pneumoniae expressing TEM-1/SHV-11/KPC-3 by broth microdilution method. It is filed as functional.
The subject of data set [29] is Enterobacter cloacae. As to the kind of experiment: Antibacterial activity against Enterobacter cloacae expressing TEM-1/KPC-2 by broth microdilution method. It is filed as functional.
The nature of data set [30]: AUC in rat at 1 mg/kg, iv. Particulars: in vivo. It is filed as ADME, organism-based. On the set-up: dose 1 mg/kg.
Data set [31] has as its system Klebsiella pneumoniae. Put plainly: Antibacterial activity against Klebsiella pneumoniae expressing SHV-11/OXA-181 by broth microdilution method. It is filed as functional.
The subject of data set [32] is Acinetobacter baumannii. Put plainly: Antibacterial activity against Acinetobacter baumannii expressing OXA-23 by broth microdilution method. It is filed as functional.

As usually defined, the IC50 is the concentration that gives 50% inhibition. `N#C[C@@H]1CC[C@@H]2CN1C(=O)N2OS(=O)(=O)[O-].[Na+]`: the IC50 in [1] was 59 nM; in data set [6], 4 nM; in data set [10], 3 nM; in data set [12], 8 nM; in data set [14] it was 67 nM; in [18], 2 nM. Also, the results for the MIC50 in [2], in data set [13] and in [20] were 16 µg/mL, 0.12 µg/mL and 0.06 µg/mL, respectively. Moreover, the Activity was 0.5 µg/mL in data set [3], 16 µg/mL in data set [4] and over 32 µg/mL in data set [15]. The MIC in [5] is under 0.03 µg/mL; in data set [7], 0.25 µg/mL; in data set [8] it was under 0.03 µg/mL; in [9], 0.5 µg/mL; in data set [11], 0.06 µg/mL; in data set [16] it was 0.25 µg/mL. In addition, the MIC worked out at 0.06 µg/mL in data set [22] and 4 µg/mL in [23]. In addition, the results for the MIC90 in [17], in data set [19] and in [21] were 32 µg/mL, 0.25 µg/mL and 1 µg/mL, respectively.

A word on the half-life: it is how long it takes for the measured level to halve. For orientation: Vd means the apparent volume that relates the amount in the body to the concentration in plasma or blood. In general, clearance refers to a measure of how efficiently the substance is removed, as volume per time. Lower therefore signals inefficient removal. One may read the AUC as the area under the concentration-time curve, a measure of exposure. Low values mean less exposure, high ones more exposure. As to `NC(=O)[C@@H]1CC[C@@H]2CN1C(=O)N2OS(=O)(=O)O` [AVIBACTAM], the half-inhibitory concentration (IC50) was over 3000 nM in data set [1]; 1 nM in data set [6]; 8 nM in [10]; 8 nM in data set [12]; 5 nM in data set [14]; 252 nM in [18]. In [24], this compound showed a half-life of 22.2 min. In [25], this compound had a Vd of 1.9 L/kg. Further, in data set [26], the clearance turned out to be 59 mL/min/kg. The MIC worked out at 16 µg/mL (≈ 60.3 µM) in data set [27]; 16 µg/mL (≈ 60.3 µM) in data set [28]; 0.25 µg/mL in [9]; 0.03 µg/mL in data set [11]; 16 µg/mL (≈ 60.3 µM) in data set [29]; 1 µg/mL in data set [16]. In addition, the MIC in [22] is 0.5 µg/mL; in [31], 32 µg/mL (≈ 121 µM); in data set [32], over 128 µg/mL; in [23] it was 16 µg/mL. For the same compound, the AUC in data set [30] came to 279 ng·h/mL.
